Measurements as given in paper PMC6268972, “Antiproliferative, Antimicrobial and Apoptosis Inducing Effects of Compounds Isolated from Inula viscosa” (Molecules, 2012).
Values after ≈ are worked out from the molar mass of the structure shown. “Also recorded” adds a separate entry of the source.

Experiments:
Bacillus cereus [1] = assay: Microtiter plate dilution MIC, B. cereus; assay type: cell-based; details: Bacillus cereus; Toxigenic strain TS, 24 h, 100% inhibition; read-out: Minimum inhibitory concentration (MIC) B.c
Method: (§1) The microbial strains used in this study were Escherichia coli (ATCC 10798), Salmonella typhimurium (ATCC14028), Methicillin resistant Staphylococcus aureus (MRSA, Clinical isolate), Bacillus cereus (Toxigenic strain TS), and Candida albicans (ATCC 90028). Bacterial strains were stocked onto nutrient agar slant at 4 °C, and Candida albicans was stocked onto malt agar slant at 4 °C.
(§2) The microtiter plate dilution method was used to determine the MIC (minimum inhibitory concentration) of compounds under study. Sterile 96-well microplates (Nunc) were used for the assay. Stock compounds were dissolved in DMSO so that the final concentrations in micro wells were less than 1% DMSO and solvent controls were run at these concentrations. Positive controls of penicillin G and tetracycline (Oxoid, Hampshire, UK) were prepared at the following concentrations 2, 4, 8, 16, 31, 62.5, 125, and 250 μg/mL. 1% DMSO was used as a solvent control. Compounds were diluted to twice the desired initial test concentration (250 µg/mL) with Muller Hinton broth (MHB) (Oxoid). All wells, except the first were filled with MHB (50 μL). Compounds (100 μL) were added to the first well and serial two-fold dilutions were made down to the desired minimum concentration (2 μg/mL). An over-night culture of bacteria suspended in MHB was adjusted to turbidity equal to 0.5 McFarland standard. The plates were inoculated with bacterial suspension (50 μL/well) and incubated at 37 °C for 24 h. Then the turbidity was measured using micro-plate reader (Biotek) at 620 nm wavelength. The same procedure was used to determine the antifungal activity of compounds against Candida albicans. The medium used was malt extract broth. The yeast cells were suspended in 0.85% saline, with an optical density equivalent to 0.5 McFarland standard, and diluted 1:100 in malt extract broth to obtain the working concentration. After 24 h incubation with each compound, the turbidity was measured at 530 nm wavelength using a spectrophotometer (Biotek). Percentage inhibition for tested microorganisms was calculated using the following formula:
(§3) MIC was determined as the lowest concentration of the compound that causes complete inhibition (100%) of each microorganism.

MCF-7 cells = assay: Scanning electron microscopy of MCF-7 cells; assay type: cell-based, human; details: 15 µg/mL compound (vincristin sulfate 40 nM), 48 h
Method: (§4) MCF-7 cells were cultured in complete DMEM containing either 15 µg/mL of 3-O-methylquercetin or 3,3′-di-O-methylquercetin and incubated for 48 h in humidified CO2 incubator. Negative control cells were incubated with complete DMEM and positive control cells received complete DMEM containing 40 nM vincristin sulfate. Treated cells were fixed with 3% glutaraldehyde for 1.5 h followed by osmium tetroxide (2% in PBS) for 1 h. After fixation, cells were washed in PBS and sequentially dehydrated using 30%, 70%, and 100% ethanol. Fixed cells were attached to a metal stubs and sputter coated with platinum by using Emitech K550X coating unit (Qourum Technology, West Sussex, UK). The coated specimens were viewed using Inspect F50/FEG scanning electron microscope (FEI, Eindhoven, The Netherlands) at accelerating voltage of 2–5 kV. Bacillus cereus cells treated with 3,3′-di-O-methylquercetin for 24 h were collected by centrifugation and washed with sodium phosphate buffer. Following that, the samples were fixed in 2.5% glutaraldehyde in 0.1 M phosphate buffer, pH 7.3, at 4 °C overnight, and postfixed in 1% osmium tetroxide in the phosphate buffer for 1 h at room temperature. Bacterial cells were dehydrated with sequential ethanol concentrations (30–100%) and coated for the observations under scanning electron microscope.

[2] = test system: Methicillin resistant Staphylococcus aureus (MRSA); assay: Microtiter plate dilution MIC, MRSA; assay type: cell-based; details: Staphylococcus aureus, MRSA; clinical isolate, 24 h, 100% inhibition; read-out: Minimum inhibitory concentration (MIC) MRSA
Method: as §1, §2, §3

Bacillus cereus [3] = assay: Scanning electron microscopy of Bacillus cereus cells; assay type: cell-based; details: 62.5 µg/mL, 24 h
Method: as §4

Vero cells = assay: MTT antiproliferative activity assay, Vero; assay type: cell-based, African green monkey; details: Chlorocebus sabaeus, Vero; MTT, 48 h treatment, average of three replicates; read-out: IC50 Vero
Method: (§5) Hep-2 (larynx carcinoma, ATCC: CCL-23), MCF-7 (breast epithelial adenocarcinoma, ATCC: HTB-22), and Vero (African green monkey kidney, ATCC: CCL-81) cell lines were kindly provided by Dr. Mona Hassuneh (Department of Biological Sciences, University of Jordan). Cells were grown in Minimum Essential Medium Eagle (Gibco, Paisley UK) supplemented with 10% heat inactivated fetal bovine serum (Gibco, Paisley UK), 29 μg/mL L-glutamine, and 40 μg/mL gentamicin. Cells were incubated in a humidified atmosphere of 5% CO2 at 37 °C.
(§6) The antiproliferative activity of Inula viscosa compounds was measured using the MTT (3-(4,5-dimethylthiazol-2-yl)-2,5-diphenyltetrazolium bromide) assay (Promega, Madison, WI, USA). The assay detects the reduction of MTT by mitochondrial dehydrogenase to blue formazan product, which reflects the normal function of mitochondria and cell viability. Exponentially growing cells were washed and seeded at 17,000 cells/well for Hep-2 cell line and 11,000 cells/ well for MCF-7 cell line (in 200 μL of growth medium) in 96 well microplates (Nunc, Roskilde, Denmark). After 24 h incubation, a partial monolayer was formed then the media was removed and 200 μL of the medium containing the compound (initially dissolved in DMSO) were added and re-incubated for 48 h. Then 100 μL of the medium were aspirated and 15 μL of the MTT solution were added to the remaining medium (100 μL) in each well. After 4 h contact with the MTT solution, blue crystals were formed. One hundred μL of the stop solution were added and incubated further for 1 h.
(§7) Reduced MTT was assayed at 550 nm using a microplate reader (Biotek, Winooski, VT, USA). Control groups received the same amount of DMSO (0.1%).Untreated cells were used as a negative control while, cells treated with vincristine sulfate were used as a positive control. Eight concentrations (150, 100, 50, 20, 10, 5, 2, and 1 μg/mL) were prepared from each compound and tested against the three cell lines. IC50 values were calculated as the concentrations that show 50% inhibition of proliferation on any tested cell line. Stock solutions of the compounds were dissolved in (DMSO) then diluted with the medium and sterilized using 0.2 μm membrane filters. The toxicity of DMSO was determined and the final dilution of compounds used for treating the cells contained not more than 0.1% (non toxic concentration) DMSO. IC50 values were reported as the average of three replicates. The antiproliferative effect of the tested compounds was determined by comparing the optical density of the treated cells against the optical density of the control (cells treated with media containing 0.1% DMSO).

Hep-2 cells = assay: MTT antiproliferative activity assay, Hep-2; assay type: cell-based; details: Homo sapiens, HEp-2; MTT, 48 h treatment, average of three replicates; read-out: IC50 Hep-2
Method: as §5, §6, §7

Question: What does the source list for `COc1cc(-c2oc3cc(O)cc(O)c3c(=O)c2OC)ccc1O` [3,3′-di-O-Methylquercetin]?
Answer: MIC (Bacillus cereus [1]): 62.5 µg/mL (≈ 189 µM); Cytomorphological alterations (scanning electron microscopy) (MCF-7 cells): cell shrinkage, membrane blebbing, loss of contact with neighboring cells, and formation of apoptotic bodies; MIC [2]: 250 µg/mL (≈ 757 µM); Morphological changes of bacterial cells (scanning electron microscopy) (Bacillus cereus [3]): induced damage in bacterial cell walls and cytoplasmic membranes; Morphological changes of bacterial cells (scanning electron microscopy) (Bacillus cereus [3]; listed as 3,3′-di-O-methylquercetin): Damages on both the bacterial cell wall and the cytoplasmic membrane; also recorded: Leakage of intracellular constituents; IC50 (Vero cells): > 150 µg/mL; IC50 (Hep-2 cells): 28 ± 1.13 µg/mL (≈ 84.8 µM)
